Results reported in article PMC5814047, “Peptidic inhibitors of insulin-degrading enzyme with potential for dermatological applications discovered via phage display” (PLoS ONE, 2018).
Values joined by “and” are separate entries in the source; they are usually repeats but may differ in a detail not shown here. Equal entries are not always repeated. Where two headings read alike, the source gives them in different places. Ends that are not written are not given here.

Legend:
IDE [1] = target: T1, IDE (Homo sapiens, UniProt P14735); assay: Vulnerability of peptides to degradation by IDE: 0 vs 4 h pre-incubation, then FRET1 assay; format: biochemical; details: for Ki: Cheng-Prusoff from IC50, FRET1 KM 10 uM, substrate 5 uM; for remaining activity at 0.12207 µM / remaining activity at 0.488281 µM / remaining activity at 1.95312 µM / remaining activity at 7.8125 µM / remaining activity at 31.25 µM / remaining activity at 125 µM / remaining activity at 500 µM: 4 h, relative to DMSO-only controls, read-out: Percent Activity (normalized initial velocity of FRET1 hydrolysis); for remaining activity at 0.12207 µM: Cmpd 0.12207 uM; for remaining activity at 0.488281 µM: Cmpd 0.488281 uM; for remaining activity at 1.95312 µM: Cmpd 1.95312 uM; for remaining activity at 7.8125 µM: Cmpd 7.8125 uM; for remaining activity at 31.25 µM: Cmpd 31.25 uM; for remaining activity at 125 µM: Cmpd 125 uM; for remaining activity at 500 µM: Cmpd 500 uM; for IC50: FRET1 assay
T1 construct: made in house; host or cells: bacteria
T1 sequence (P14735 1-1019): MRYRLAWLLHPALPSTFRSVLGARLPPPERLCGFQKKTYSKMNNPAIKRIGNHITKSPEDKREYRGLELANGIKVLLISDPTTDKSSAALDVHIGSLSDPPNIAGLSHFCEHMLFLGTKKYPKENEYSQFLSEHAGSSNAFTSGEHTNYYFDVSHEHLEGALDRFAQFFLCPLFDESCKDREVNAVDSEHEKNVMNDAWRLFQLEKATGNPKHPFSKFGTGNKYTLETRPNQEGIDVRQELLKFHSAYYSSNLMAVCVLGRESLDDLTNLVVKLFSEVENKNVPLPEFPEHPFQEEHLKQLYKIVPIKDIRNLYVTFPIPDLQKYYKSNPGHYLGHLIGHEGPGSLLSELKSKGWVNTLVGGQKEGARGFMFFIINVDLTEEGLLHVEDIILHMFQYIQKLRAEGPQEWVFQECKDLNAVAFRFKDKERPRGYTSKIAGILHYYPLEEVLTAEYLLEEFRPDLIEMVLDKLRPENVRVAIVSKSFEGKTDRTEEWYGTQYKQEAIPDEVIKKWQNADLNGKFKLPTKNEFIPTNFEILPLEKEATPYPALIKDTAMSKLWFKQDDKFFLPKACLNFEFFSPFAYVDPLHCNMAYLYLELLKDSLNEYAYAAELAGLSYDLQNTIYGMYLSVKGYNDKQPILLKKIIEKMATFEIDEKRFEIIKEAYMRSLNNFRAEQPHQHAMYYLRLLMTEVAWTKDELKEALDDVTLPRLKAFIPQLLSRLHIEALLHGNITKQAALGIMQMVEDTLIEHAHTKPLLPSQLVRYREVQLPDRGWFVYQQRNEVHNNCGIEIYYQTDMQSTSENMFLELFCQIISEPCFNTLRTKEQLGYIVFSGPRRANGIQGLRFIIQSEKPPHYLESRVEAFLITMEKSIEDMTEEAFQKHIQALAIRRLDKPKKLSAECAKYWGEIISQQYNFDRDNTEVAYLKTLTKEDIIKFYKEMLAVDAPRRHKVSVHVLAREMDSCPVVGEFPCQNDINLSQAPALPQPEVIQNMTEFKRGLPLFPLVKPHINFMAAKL
Experimental: (§1) IDE activity was quantified by monitoring the degradation of Mca-[…](Dnp) (FRET1, 5 μM), fluoresceinated and biotinylated amyloid ß-protein (FAßB; 500 nM) or recombinant human insulin (50 nM) in PBS supplemented with 0.05% BSA. […] In vitro activity assays incorporated recombinant human IDE (1 nM) purified from bacteria. For quantitation of insulin degradation in primary murine skin fibroblasts, cells (1 x 10^5/well) were plated in 96-well plates and maintained in DMEM supplemented with 10% fetal bovine serum (FBS), 2mM glutamine, penicillin and streptomycin. After addition of insulin (10 nM or 100 nM), samples of conditioned medium were removed daily and quickly frozen, then insulin levels were quantified in parallel by ELISA according to manufacturer’s recommendations (Crystal Chem, Downers Grove, IL, USA). Assessment of the activity of P12-3A against a variety of matrix-metalloproteases was conducted using the Matrix Metalloproteinase (MMP) Inhibitor Profiling Kit, Fluorometric RED (Enzo Life Sciences, Inc., Farmingdale, NY, USA) according to manufacturer’s recommendations using the broad-spectrum MMP inhibitor, NNGH, as a positive control.

IDE [2] = target: T1, IDE; assay: biochemical; details: for IC50: from initial test at 10 uM using insulin (100 nM), read-out: IC50 (summary of results, listed in Table 1); for Ki: substrate recombinant human insulin 50 nM, Ki from IC50 with the Cheng-Prusoff equation
Source text: The six selected peptide sequences (C7C-1, C7C-2, 12–1, 12–2, 12–3 and 12–4) were synthesized, together with a variety of modifications, yielding a total of 25 peptides (Table 1). For the 12-mer peptides, we synthesized variants of the parent peptides truncated at one or both termini, to test whether the entire sequence was necessary or not, in the hope that shorter, and thus less expensive, sequences might be effective. Other modifications included N-terminal acetylation and C-terminal amidation, included to mimic the charge state of the peptides when incorporated in the phage coat protein (Table 1). To assess the extent to which these peptide sequences inhibit IDE, we quantified their potency in protease activity assays using recombinant human IDE and two different substrates: FRET1, a fluorogenic peptide, and recombinant human insulin.
IDE activity was quantified by monitoring the degradation of Mca-[…](Dnp) (FRET1, 5 μM), fluoresceinated and biotinylated amyloid ß-protein (FAßB; 500 nM) or recombinant human insulin (50 nM) in PBS supplemented with 0.05% BSA. FRET1 degradation was measured by changes in fluorescence (λex = 340 nm, λem = 420 nm); FAßB degradation was monitored by fluorescence polarization (λex = 488 nm, λem = 525 nm), as described; and insulin degradation was quantified by ELISA. In vitro activity assays incorporated recombinant human IDE (1 nM) purified from bacteria. For quantitation of insulin degradation in primary murine skin fibroblasts, cells (1 x 10^5/well) were plated in 96-well plates and maintained in DMEM supplemented with 10% fetal bovine serum (FBS), 2mM glutamine, penicillin and streptomycin. After addition of insulin (10 nM or 100 nM), samples of conditioned medium were removed daily and quickly frozen, then insulin levels were quantified in parallel by ELISA according to manufacturer’s recommendations (Crystal Chem, Downers Grove, IL, USA). Assessment of the activity of P12-3A against a variety of matrix-metalloproteases was conducted using the Matrix Metalloproteinase (MMP) Inhibitor Profiling Kit, Fluorometric RED (Enzo Life Sciences, Inc., Farmingdale, NY, USA) according to manufacturer’s recommendations using the broad-spectrum MMP inhibitor, NNGH, as a positive control.

IDE [3] = target: T1, IDE; assay: biochemical; details: for IC50: dose-response, FRET1, read-out: IC50s, Mean; for IC50 <500 uM?: initial test at 500 uM; for remaining activity at 500 µM: individual replicates, read-out: Percent activity at 500 uM, Replicate 1-4; for Ki: substrate FRET1 5 μM, Ki from IC50 with the Cheng-Prusoff equation, read-out: Ki FRET1
Experimental: The six selected peptide sequences (C7C-1, C7C-2, 12–1, 12–2, 12–3 and 12–4) were synthesized, together with a variety of modifications, yielding a total of 25 peptides (Table 1). […] Other modifications included N-terminal acetylation and C-terminal amidation, included to mimic the charge state of the peptides when incorporated in the phage coat protein (Table 1).
as §1

IDE [4] = target: T1, IDE; set-up: method as in PMID 24847884; details: read-out: IC50 against insulin; cited from earlier work
[5] = 4-hr incubation, individual runs
[6] = 0-hr incubation (immediately after combining enzyme and peptide), individual runs, read-out: IC50s
[7] = 4-hr incubation, individual replicates, read-out: IC50s
[8] = 4-hr incubation, mean of 2 replicates, read-out: IC50s, Mean
[9] = initial test, percent of initial velocity relative to DMSO-only controls

| Molecule | Ki (IDE [1]; 0-hr incubation) | Ki (IDE [1]; 4-hr incubation) | remaining activity at 0.12207 µM (IDE [1]; [5]) | remaining activity at 0.488281 µM (IDE [1]; [5]) | remaining activity at 1.95312 µM (IDE [1]; [5]) | remaining activity at 7.8125 µM (IDE [1]; [5]) | remaining activity at 31.25 µM (IDE [1]; [5]) | remaining activity at 125 µM (IDE [1]; [5]) | remaining activity at 500 µM (IDE [1]; [5]) | IC50 (IDE [1]; [6]) | IC50 (IDE [1]; [7]) | IC50 (IDE [1]; [8]) | IC50 (IDE [2]) | Ki (IDE [2]) | IC50 (IDE [3]) | IC50 <500 uM? (IDE [3]) | remaining activity at 500 µM (IDE [3]; [9]) | remaining activity at 500 µM (IDE [3]; judged as IC50 <100 uM?) | Ki (IDE [3]) | IC50 (IDE [4]) |
| --- | --- | --- | --- | --- | --- | --- | --- | --- | --- | --- | --- | --- | --- | --- | --- | --- | --- | --- | --- | --- |
| Ac-FRQWWQPS [P12-1C] | 139 µM | 327 µM | 100% | 104% | 105% | 104% | 78.2% | 24.3% | 2.79% | 150 µM and 254 µM and 220 µM | 482 µM and 500 µM | 491 µM | > 10 µM | > 10 µM | 208 µM | YES | 12.6% | 33.8% | 139 ± 21 µM | – |
| NCCCC[C@@H]1NC(=O)/C=C/C(=O)N[C@H](C(N)=O)CCCCNC(=O)[C@@H](Cc2ccc(C(=O)c3ccccc3)cc2)NC(=O)[C@H](CC2CCCCC2)NC1=O [6bK] | – | – | – | – | – | – | – | – | – | – | – | – | – | – | – | – | – | – | – | ~100 nM |
| CC(=O)N[C@@H](Cc1c[nH]c2ccccc12)C(=O)N[C@@H](CC(=O)O)C(=O)N[C@@H](Cc1ccccc1)C(=O)N[C@@H](CCCNC(=N)N)C(=O)N[C@@H](CCC(N)=O)C(=O)N[C@@H](Cc1c[nH]c2ccccc12)C(=O)N[C@@H](Cc1c[nH]c2ccccc12)C(=O)N[C@@H](CCC(N)=O)C(N)=O [P12-1D] | – | 515 µM | 102% | 91.2% | 99.3% | 97.1% | 90.2% | 47.6% | 20.6% | 138 µM and 282 µM | 791 µM and 755 µM | 773 µM | > 10 µM | > 10 µM | 210 µM | YES | 13.4% | 61.2% | > 100 µM | – |
